In PubChem BioAssay (NCI):
“And” between values parts separate entries of the source, which are not always exact repeats. Equal entries are not always repeated.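 Test compounds were applied to cells in 96-well plates for 48 hours at 5 doses. At the GI50, growth is halved. TGI: concentration producing complete growth inhibition.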 *1 amine or outer side, *2 acyl side, *3 side chain or, on linkers, in order; H or OH if unused. Where a SMILES comes first, the peptide text is derived from it. Bridges are numbered along the chain shown (N, C = ends). Roman numbers before positions name the chains, in order. [ ]: non-standard residue; d: D form. Actinocin(9to1) = Cc1c2oc3c(C)ccc(C(=O)[*:1])c3nc-2c(C(=O)[*:2])c(N)c1=O; NMeV = CN[CH](C(=O)O)C(C)C; Sar = CNCC(=O)O

Columns and labels:
Assay in all cases: NCI-60 cell line screen, 48 h
[1] = test system: RXF 393 renal
[2] = test system: SK-MEL-28 melanoma
[3] = test system: OVCAR-3 ovarian
[4] = test system: NCI-H226 lung
[5] = test system: SF-539 CNS
[6] = test system: TK-10 renal
[7] = test system: NCI-H23 lung
[8] = test system: A549 NSCLC
[9] = test system: MALME-3M melanoma
[10] = test system: SF-268 CNS

| SMILES | GI50 [1] | TGI [1] | GI50 [2] | TGI [2] | GI50 [3] | TGI [3] | GI50 [4] | TGI [4] | GI50 [5] | TGI [5] | GI50 [6] | TGI [6] | GI50 [7] | TGI [7] | GI50 [8] | TGI [8] | GI50 [9] | TGI [9] | GI50 [10] | TGI [10] |
| --- | --- | --- | --- | --- | --- | --- | --- | --- | --- | --- | --- | --- | --- | --- | --- | --- | --- | --- | --- | --- |
| N#C[S-].[Nd+3].c1ccc(-c2ccccn2)nc1.c1ccc(-c2ccccn2)nc1.c1ccc(-c2ccccn2)nc1 | 3.89 µM | 24.8 µM | 13.7 µM | > 100 µM | 37.6 µM | > 100 µM | 2.89 µM | 7.52 µM | 3.78 µM | > 100 µM | 5.05 µM | > 100 µM | 25.8 µM | 98.7 µM | 4.94 µM | > 100 µM | 18.5 µM | 68.4 µM | – | – |
| C#CC(F)(F)[C@]1(O)CC[C@H]2[C@@H]3CCC4=CC(=O)CCC4=C3[C@@H](c3ccc(C(C)=O)cc3)C[C@@]21C | 13.4 µM | 39.8 µM | 16.2 µM | > 72.4 µM | 0.289 µM | 42.8 µM | 21.7 µM | 71.3 µM | – | – | 24.9 µM | 71.4 µM | – | – | 25.9 µM | > 100 µM | – | – | 0.423 µM | > 100 µM |
| C(=C\c1ccccc1)/C=N/c1nc2cc3sc(/N=C/C=C/c4ccccc4)nc3cc2s1 | – | > 100 µM | – | > 100 µM | – | > 100 µM | – | – | – | > 100 µM | – | > 100 µM | – | > 100 µM | – | > 100 µM | – | > 100 µM | – | > 100 µM |
| O=S1(=O)c2ccccc2C(=NO)c2ccccc21 | – | > 100 µM | – | > 100 µM | – | > 100 µM | – | > 100 µM | – | > 100 µM | – | > 100 µM | – | > 100 µM | – | > 100 µM | – | – | – | > 100 µM |
| O=C(NC1CCN(Cc2ccccc2)CC1)c1cc2nc(-c3ccc(Cl)s3)cc(C(F)(F)F)n2n1 | 3.23 µM | > 100 µM | – | – | 42.4 µM | > 100 µM | > 100 µM | > 100 µM | > 100 µM | > 100 µM | 12.5 µM | > 100 µM | > 100 µM | > 100 µM | 79 µM | > 100 µM | – | – | > 100 µM | > 100 µM |
| COc1cc(/C=C2\N=C(c3ccccc3)N(c3nc4c(OC)ccc(OC)c4s3)C2=O)cc(OC)c1OC | – | > 100 µM | – | > 100 µM | – | > 100 µM | – | – | – | – | – | > 100 µM | – | > 100 µM | – | > 100 µM | – | > 100 µM | – | > 100 µM |
| CCOC(=O)/C=C(\C(=O)OCC)n1ccc(N)nc1=O | – | – | – | – | – | > 100 µM | – | > 100 µM | – | > 100 µM | – | > 100 µM | – | > 100 µM | – | > 100 µM | – | > 100 µM | – | > 100 µM |
| Cc1c2oc3c(C)ccc(C(=O)NC4C(=O)NC(C(C)O)C(=O)N5CCCC5C(=O)N(C)CC(=O)N(C)C(C(C)C)C(=O)OC4C)c3nc-2c(C(=O)NC2C(=O)NC(C(C)O)C(=O)N3CCCC3C(=O)N(C)CC(=O)N(C)C(C(C)C)C(=O)OC2C)c(N)c1=O (stereo not drawn) (I: TTP[Sar][NMeV] / II: TTP[Sar][NMeV]; ester I:1-I:C, II:1-II:C; linker I:N-II:N via Actinocin(9to1); configuration not given here) | – | 1.29 µM | – | 2.75 µM | – | 4.71 µM | – | 0.803 µM | – | 1.44 µM | – | 6.18 µM | – | 4.8 µM | – | 32.1 µM | – | – | – | > 100 µM |
| O=c1cc(N2CCCC2)[nH]c(=O)n1-c1cccc(C(F)(F)F)c1 | – | > 100 µM | – | – | – | > 100 µM | – | > 100 µM | – | > 100 µM | – | > 100 µM | – | > 100 µM | – | – | – | > 100 µM | – | > 100 µM |
| CSC1=C(C#N)C(=O)N(c2ccc(C)cc2)C(=S)C1C#N (stereo not drawn) | – | > 100 µM | – | > 100 µM | – | – | – | > 100 µM | – | > 100 µM | – | > 100 µM | – | – | – | > 100 µM | – | > 100 µM | – | > 100 µM |
| CC(=O)OC(OC(C)=O)n1cc(C=O)c2ccccc21 | – | – | – | > 100 µM | – | > 100 µM | – | > 100 µM | – | – | – | > 100 µM | – | > 100 µM | – | > 100 µM | – | – | – | – |
| NCCNc1cccc2ccccc12 | – | > 100 µM | – | – | – | > 100 µM | – | > 100 µM | – | > 100 µM | – | > 100 µM | – | > 100 µM | – | > 100 µM | – | > 100 µM | – | > 100 µM |
| OC1(c2cc3ccccc3s2)CCCCC1 | – | > 100 µM | – | > 100 µM | – | > 100 µM | – | > 100 µM | – | > 100 µM | – | > 100 µM | – | > 100 µM | – | > 100 µM | – | – | – | 93.6 µM |
| O=C(CCCCCCCCC(=O)N1C(=O)CC(=O)N(c2cccc(Cl)c2)C1=S)N1C(=O)CC(=O)N(c2cccc(Cl)c2)C1=S | – | > 100 µM | – | – | – | 65 µM | – | – | – | – | – | > 100 µM | – | > 100 µM | – | > 100 µM | – | > 100 µM | – | > 100 µM |
| COC(=O)/C=C/c1cc(O)c2c(c1)[C@H](C(=O)OC)[C@@H](c1ccc(O)c(O)c1)O2 | – | – | – | > 71 µM | – | – | – | > 22.7 µM | – | – | – | > 100 µM | – | > 100 µM | – | > 100 µM | – | – | – | > 87 µM |
| O=[N+]([O-])c1ccc(N=Nc2c(O)c(S(=O)(=O)O)cc3cc(S(=O)(=O)O)ccc23)cc1 | – | – | – | > 100 µM | – | > 100 µM | – | > 100 µM | – | > 100 µM | – | > 100 µM | – | > 100 µM | – | > 100 µM | – | > 100 µM | – | – |
| C=CCNC(=O)NC1=CSC2=NC(=O)C3(NN12)c1ccccc1-c1ccccc13 | – | > 10 µM | – | > 10 µM | – | – | – | > 10 µM | – | > 10 µM | – | > 10 µM | – | > 10 µM | – | > 10 µM | – | > 10 µM | – | > 10 µM |
| NC(=O)C#CC(N)=O | 3.62 µM and 10.2 µM and 14.6 µM | 14.6 µM and 22.7 µM and 29.5 µM | 8.21 µM and 5.85 µM | 20 µM and 15.6 µM and 27 µM | 26.5 µM and 22.8 µM and > 100 µM | 90.2 µM and 66.5 µM and > 100 µM | 73.6 µM | 169 µM and > 100 µM | – | 46.3 µM and 68.9 µM | – | 36.2 µM | 46.4 µM | 238 µM and 207 µM and > 100 µM | 49.4 µM | 173 µM and 189 µM and > 100 µM | 5.74 µM | 19.7 µM and 18.1 µM | – | – |
| CC(CO)C1C[C@H](O)[C@@]2(C)CC(=O)C=C(CO)[C@@H]2C1 (stereo partly drawn) | – | > 100 µM | – | > 100 µM | – | > 100 µM | – | > 100 µM | – | > 100 µM | – | > 100 µM | – | > 100 µM | – | > 100 µM | – | – | – | > 100 µM |
| Cc1cccc(NC(=O)C(=O)C(C(=O)c2ccccc2F)C2OC(=O)c3ccccc32)c1Cl (stereo not drawn) | – | – | – | > 100 µM | – | – | – | 62.3 µM | – | 40.4 µM | – | > 100 µM | – | 81.8 µM | – | > 100 µM | – | – | – | 80.9 µM |
